Reference: article PMC12040169 (PLOS Biology, 2025)

experiment: in vitro; conditions: human, hela cells, % viability

Structure (SMILES)	viability at 28.5 h, 10 µM
NC(=O)CN1CCN(c2nccnc2OCc2ccc(Cl)c(Cl)c2)CC1 [CBK083079T]	111%
CCc1ccc(CNC(=O)Cn2cnc(-c3ccc(CN4CCC(C)CC4)cc3)c2)cc1 [CBK158710T]	100%
O=S(=O)(c1ccc(Cl)c(Cl)c1)c1ccc2nccc(N3CCNCC3)c2c1 [CBK036497C]	84.8%
COc1cc2c(cc1OC)CN(C(=O)N(CCN)CCC(C)c1ccccc1)CC2 (stereo not shown) [CBK000612C]	80.9%
C=CCn1c(COc2ccc(Cl)cc2)nnc1SCC(=O)O [CBK263171]	105%
CCc1nn(CC(=O)N2CCCCCC2)c(=O)c2cc3occc3n12 [CBK283677]	86.9%
C[C@]12CN(Cc3ccccc3)C[C@H]1NC(=O)c1ccccc1C2=O [CBK284703]	96.5%
O=C(/C=C/c1ccc(-c2ccccc2[N+](=O)[O-])o1)Nc1ccc(-c2nc3ncccc3o2)cc1 [CBK263434]	99.2%
CC(NC(=O)n1ccc2c(N3CCNCC3)cccc21)c1ccccc1 (stereo not shown) [CBK003729C]	90.7%
COc1cc(-c2nccnc2NCCc2c[nH]c3ccccc23)cc(OC)c1OC [CBK038015]	102%
CCCCc1ccc(N2C(=O)CC(Nc3ccc(C(=O)O)cc3)C2=O)cc1 (stereo not shown) [CBK296972]	108%
Nc1cc(NC(=O)c2cccc(C(=O)Nc3ccc(Cl)c(N)c3)c2)ccc1Cl [CBK261379]	94.1%
O=C(c1cccs1)N1CCN(S(=O)(=O)c2cccc([N+](=O)[O-])c2)CC1 [CBK266184]	94.7%
CCN(CC)CCCNC(=O)N1CCCCC1CO (stereo not shown) [CBK155982]	97.9%
Cc1c(C(=O)O)[nH]c2c1C(=O)CCC2 [CBK015548]	97.5%
CNc1nc(SCC(=O)Nc2ccc(Cl)c(Cl)c2)nc(N2CCOCC2)n1 [CBK269559]	85.3%
CN(C)CCn1ccnc1C1CCCN(C(=O)Cc2cccc(Cl)c2)C1 (stereo not shown) [CBK307272]	92.3%
CN(C)CC(=O)Nc1ccc(Br)cc1C(=O)c1ccccc1Cl [CBK264663F]	91.4%
O=C1C(n2c(=O)[nH]c3ccccc3c2=O)CCN1CC(F)(F)F (stereo not shown) [CBK305264]	104%
CCOc1ccc(C(=O)Nc2nonc2CC)cc1 [CBK287287]	94.3%
CCCN1CCCC(c2ccccc2O)C1 (stereo not shown) [CBK024365G]	95.3%
COc1ccc(Cl)c(NC(=O)NCCN2CCN(c3ccccc3)CC2)c1 [CBK268899]	90.7%

Structure (SMILES)	viability at 28.5 h, 10 µM
COc1ccccc1-c1cn2ccnc2c(Nc2cccc(Cl)c2)n1 [CBK066399]	89.4%
COc1ccc(OC)c(S(=O)(=O)n2ccc3c(N4CCNCC4)nccc32)c1 [CBK059067C]	101%
CCCCOc1ccc(-c2nnn(CC(=O)NCc3ccccc3)n2)cc1 [CBK068557]	96.8%
CCC1C=CCN1S(=O)(=O)c1cccc(C(=O)NCc2cnn(C)c2)c1 (stereo not shown) [CBK307536]	96.4%
O=C(O)CNc1ccccc1C(=O)O [CBK260902]	120%
Cc1ccc(OCCO)cn1 [CBK001786]	91%
COCCN(Cc1cnn(C)c1)Cc1cc(O)c2cc(F)ccc2n1 [CBK307359]	103%
CSc1nccc(N2CCC(NCCCn3ccnn3)CC2)n1 [CBK307076]	92.7%
FC(F)(F)c1cc(-c2cc(Nc3ccc4[nH]ccc4c3)ncn2)cc(C(F)(F)F)c1 [CBK090855]	97.9%
COc1ccc(-c2c(-c3ccc(OCc4cnn(-c5ccccc5)c4)c(C)c3O)n[nH]c2C)cc1 [CBK265006]	92.5%
CN(CC(=O)Nc1cnc(-c2ccc(F)cc2)c(-c2ccco2)n1)S(=O)(=O)c1ccccc1 [CBK037214]	100%
O=C(NC1CCN(C(=O)CCn2ccc3ccncc32)CC1)C1CC1 [CBK284718]	78.3%
COc1ccc(OCC(=O)N/N=C\c2c(OC)ccc3ccccc23)c(Br)c1 [CBK261235]	86.3%
O=C1CCC(=O)N1CCOc1nccnc1OC1CCN(CCc2c[nH]c3ccccc23)CC1 [CBK084355]	94.6%
N#CCc1ccc(Nc2cc(-c3cccc(N)c3)ncn2)cc1 [CBK091187]	96.7%
COc1ccc(-c2cc(C(F)(F)F)nc(SCC(=O)N3CCN(C)CC3)n2)cc1OC [CBK266194]	96.1%
Cc1cc(C)cc(-c2nnc(SCCC(=O)NC(N)=O)o2)c1 [CBK295164]	107%
O=C(Cc1ccccc1)N1CCC(c2nc3ccccc3s2)CC1 [CBK070145]	92.6%
COc1ccc2c(c1)C1(CC(=O)N(CC(=O)N(C)C)C1=O)C(=O)N2Cc1ccc2ccccc2n1 (stereo not shown) [CBK075923]	93.7%
COc1cc([N+](=O)[O-])ccc1NC(=S)NCc1ccc(S(N)(=O)=O)cc1 [CBK267067]	100%
O=C(Cn1ccnc1)NC(Cc1cccs1)c1nccs1 (stereo not shown) [CBK285092]	93.2%
CN(C)CCC1CCCCN1C(=O)[C@@H]1C[C@@H]2C=C[C@H]1C2 (stereo partly shown) [CBK282054]	89.2%

Structure (SMILES)	viability at 28.5 h, 10 µM
CC(C)CCNCc1ccc(-c2cn(CC(=O)NCc3ccc(C(F)(F)F)cc3)cn2)cc1 [CBK165976]	91.7%
COCCN(Cc1cnn(C)c1)C(=O)NCc1nc2c(C)cccc2o1 [CBK307642]	86.8%
Cc1ccc(NCC2CCN(Cc3cc(=O)n4ccccc4n3)C2)nc1 (stereo not shown) [CBK306334]	80.7%
Cn1ccnc1C1(O)CC2CCC(C1)N2C(=O)Nc1ccc(F)cc1 (stereo not shown) [CBK284051]	85.7%
Cc1oc(C)c(C(=O)Nc2cccc(C(=O)O)c2)c1C(=O)Nc1cccc(C(=O)O)c1 [CBK266472]	108%
CC(C)(C)OC(=O)N1CCC[C@]2(CCC(=O)N2)[C@H]1c1ccc(F)cc1 [CBK283462]	86.1%
COc1ncc(-c2cnc(N)c(-c3cccc(N(C)C)c3)n2)c(OC)n1 [CBK064017]	90.9%
CCc1nn(CC(=O)NCC2CC2)c(=O)c2cc3ccsc3n12 [CBK284129]	87.8%
O=C(CCN1CCOCC1)Nc1ccc(Cl)cc1 [CBK263820]	98.8%
O=c1[nH]c(=O)n([C@H]2C[C@@H](O)[C@@H](CO)O2)cc1CCO [CBK201239]	99.6%
O=C(CCC(=O)Nc1ccc(I)cc1)N/N=C/c1ccc(Br)cc1 [CBK262010]	88.9%
COc1ccc(CN2CCCc3ccccc32)cc1 [CBK126458]	95.6%
Cc1ccc(NS(=O)(=O)c2cc(C(=O)Nc3cccc(N(C)S(C)(=O)=O)c3)ccc2C)c(C)c1 [CBK268220]	92.7%
Fc1ccc2nc(Nc3nnc(-c4ccco4)o3)sc2c1 [CBK287488]	94.5%
Cc1nc(NC(=O)c2ccoc2)sc1C [CBK296729]	103%
O=C(O)C[C@@H]1CCN(C(=O)c2ccco2)C[C@@H]1CC1=NCCc2cc(F)ccc21 [CBK289166]	91.1%
COc1ccc(S(=O)(=O)n2ccn(C(c3ccccc3)c3ccccc3)c2=O)cc1OC [CBK106621]	89.1%
O=C(CCCn1cccn1)N1CCOC(c2ccc(Cl)cc2)C1 (stereo not shown) [CBK304643]	79.1%
O=C(Cn1cccn1)NC(Cc1cccs1)c1nccs1 (stereo not shown) [CBK285136]	94.4%
O=C(CCn1ccc2ccc(F)cc21)NC[C@H]1CC[C@H](C(=O)O)CC1 [CBK286666]	86.2%
COc1ccc(Sc2cccc(C(F)(F)F)n2)cc1OC [CBK093769]	94%
N#CCCCN1CCC(Oc2nccnc2OCc2c(F)cccc2Cl)CC1 [CBK153630]	102%

Structure (SMILES)	viability at 28.5 h, 10 µM
Cc1ccn2c(-c3csc(Nc4ccc(S(N)(=O)=O)cc4)n3)c(C)nc2c1 [CBK263304B]	63.7%
O=C(Cn1cccc(C(=O)NC2CCCCC2)c1=O)NC1(c2ccccc2)CCCC1 [CBK286059]	85.1%
CCOC(=O)CN1CCC(Oc2nccnc2OCc2cc(C)on2)CC1 [CBK082960T]	105%
Cc1cc(C)n(CC(O)CN(Cc2ccco2)Cc2cccs2)n1 (stereo not shown) [CBK282979]	100%
CN(C(=O)c1ccccn1)C1CCN(c2ncnc3ccccc23)CC1 [CBK305346]	91.8%
c1ccc(CN2CCN(Cc3c[nH]c(-c4ccccc4)n3)CC2)cc1 [CBK074775]	84.6%
CN1CCC(N(C)C(=O)c2ccc(-c3ccccc3CO)cc2)C1 (stereo not shown) [CBK307432]	103%
O=C(CNS(=O)(=O)c1cccc(Cl)c1)Nc1ccc(-c2nc3ccccc3s2)cc1 [CBK267178]	97.5%
Cc1cnc2[nH]c(C3CCCN(C(=O)c4cn(C)nc4C)C3)cc2c1 (stereo not shown) [CBK285170]	110%
Cc1cccc(C)c1N(CC(=O)O)S(C)(=O)=O [CBK262329]	102%
CCOC(=O)c1[nH]c2ccccc2c1NS(=O)(=O)c1ccc(Br)cc1 [CBK047409]	116%
Cc1ccc(C(=O)O)cc1NC(=O)C1CCCCC1C(=O)O (stereo not shown) [CBK263679]	93.5%
Cc1ccccc1C(=O)NC(=S)NCCN1CCOCC1 [CBK288475]	94.5%
CCCn1ncc(CN[C@@H]2CCC[C@H]2Cc2cc(C)no2)c1C [CBK282948]	88.7%
CCC1CCCCN1C(=O)c1ccc(C)c(Br)c1 (stereo not shown) [CBK081559]	100%
CCCCNCC(=O)Nc1sc2c(c1C(=O)O)CCCC2 [CBK287207]	83.7%
N#CCCCN1CCC(Oc2nccnc2OC2CCCCC2)CC1 [CBK082871T]	101%
CCN(CC)C(=O)c1sccc1NS(=O)(=O)Cc1ccccc1[N+](=O)[O-] [CBK050396]	97%
c1ccc(-c2cc(CC3(NCc4c[nH]c5ccccc45)COC3)no2)nc1 [CBK289250]	102%
Cn1ncc2c1CCCN(C(=O)COc1ccc(C(C)(C)C)cc1)C2 [CBK285286]	115%
COC(=O)c1cc(C#N)c(=O)n(CC(=O)Nc2ccc(OC)c(OC)c2)c1 [CBK297926]	102%

same assay, conditions: human, hela cells, % viability, bulk resorufin, single well

Structure (SMILES)	viability at 28.5 h, 10 µM
CCN1CCN(Cc2cc(Br)c(OC)cc2OC)CC1 [CBK261566]	103%
